Series [1] in a line: Solubility of the hardly water-soluble substance in PBS (statement). To be noted: PBS without solubilizing agent.
The nature of series [2]: Solubilization test of myristic acid: turbidity at 450 nm. To be noted: for turbidity: solubilizing agent 5.000% by mass in PBS, myristic acid 100 mg/mL in ethanol, 3 μL/well, absorbance 450 nm minus PBS alone; for turbidity ratio to PBS: solubilizing agent 5.000% by mass, myristic acid, less than 10% = dissolved. It counts as physicochemical. As to the method:
Myristic acid was dissolved in ethanol at a concentration of 100 mg/mL to prepare a myristic acid solution.
In the same manner as above except that PBS was used instead of the solubilizing solution, “turbidity of a mixture of PBS and a myristic acid solution” (that is, difference between the absorbance of a mixture of PBS and a myristic acid solution at a wavelength of 450 nm and the absorbance of PBS alone at a wavelength of 450 nm) was calculated.
As an index for evaluation of whether or not myristic acid is dissolved, turbidity ratio to PBS was calculated by the following formula: • turbidity ratio to PBS (%)=100×(turbidity of a mixture of solubilizing solution and myristic acid solution)/(turbidity of a mixture of PBS and myristic acid solution). When the turbidity ratio to PBS was less than 10%, myristic acid was evaluated to have been dissolved.

Series [3] in a line: Solubilization test of DL-α-tocopherol (vitamin E): turbidity at 450 nm. It counts as physicochemical. The settings on record: for turbidity: DL-α-tocopherol 20 mg/mL in ethanol, 1 μL/well, absorbance 450 nm minus PBS alone; for turbidity ratio to PBS: DL-α-tocopherol, less than 10% = dissolved. The procedure: DL-α-tocopherol (vitamin E) was dissolved in ethanol at a concentration of 20 mg/mL to prepare a DL-α-tocopherol solution.
In the same manner as above except that PBS was used instead of the solubilizing solution, “turbidity of a mixture of PBS and a DL-α-tocopherol solution” (that is, difference between the absorbance of a mixture of PBS and a DL-α-tocopherol solution at a wavelength of 450 nm and the absorbance of PBS alone at a wavelength of 450 nm) was calculated.
As an index for evaluation of whether or not DL-α-tocopherol is dissolved, turbidity ratio to PBS was calculated by the following formula: turbidity ratio to PBS (%)=100×(turbidity of a mixture of solubilizing solution and DL-α-tocopherol solution)/(turbidity of a mixture of PBS and DL-x-tocopherol solution). When the turbidity ratio to PBS was less than 10%, DL-α-tocopherol was evaluated to have been dissolved.

Series [4] in a line: Solubilization test of lauric acid: turbidity at 450 nm. The settings on record: for turbidity: solubilizing agent 5.000% by mass in PBS, lauric acid 100 mg/mL in ethanol, 3 μL/well, absorbance 450 nm minus PBS alone; for turbidity ratio to PBS: solubilizing agent 5.000% by mass, lauric acid, less than 10% = dissolved. It counts as physicochemical. The procedure: Lauric acid was dissolved in ethanol at a concentration of 100 mg/mL to prepare a lauric acid solution.
In the same manner as above except that PBS was used instead of the solubilizing solution, “turbidity of a mixture of PBS and a lauric acid solution” (that is, difference between the absorbance of a mixture of PBS and a lauric acid solution at a wavelength of 450 nm and the absorbance of PBS alone at a wavelength of 450 nm) was calculated.
As an index for evaluation of whether or not lauric acid is dissolved, turbidity ratio to PBS was calculated by the following formula: • turbidity ratio to PBS (%)=100×(turbidity of a mixture of solubilizing solution and lauric acid solution)/(turbidity of a mixture of PBS and lauric acid solution). When the turbidity ratio to PBS was less than 10%, lauric acid was evaluated to have been dissolved.

A short description of series [5]: Solubilization test of cholecalciferol (vitamin D3): turbidity (absorbance at 450 nm) of a mixture of solubilizing solution and cholecalciferol solution. The settings on record: for turbidity: 100 μL + 1 μL cholecalciferol 20 mg/mL in ethanol, absorbance 450 nm minus PBS alone; for turbidity ratio to PBS: cholecalciferol, less than 10% = dissolved. It counts as physicochemical. As to the method: Cholecalciferol (vitamin D3) was dissolved in ethanol at a concentration of 20 mg/mL to prepare a cholecalciferol solution. […] The cholecalciferol solution was dispensed at 1 uL/well. The mixture in each well was stirred for 1 min, and the absorbance of the mixture at a wavelength of 450 nm was measured. In addition, the absorbance of PBS alone not containing cholecalciferol at a wavelength of 450 nm was measured. The difference between the absorbance of the mixture of the solubilizing solution and the cholecalciferol solution at a wavelength of 450 nm and the absorbance of PBS alone at a wavelength of 450 nm was taken as “turbidity of a mixture of a solubilizing solution and a cholecalciferol solution”. A smaller turbidity indicates a larger amount of a hardly water-soluble substance dissolved therein.
In the same manner as in the above except that PBS was used instead of the solubilizing solution, “turbidity of a mixture of PBS and a cholecalciferol solution” (that is, difference between the absorbance of a mixture of PBS and a cholecalciferol solution at a wavelength of 450 nm and the absorbance of PBS alone at a wavelength of 450 nm) was calculated.
As an index for evaluation of whether or not cholecalciferol is dissolved, turbidity ratio to PBS was calculated by the following formula: • turbidity ratio to PBS (%)=100×(turbidity of a mixture of solubilizing solution and cholecalciferol solution)/(turbidity of a mixture of PBS and cholecalciferol solution). When the turbidity ratio to PBS was less than 10%, cholecalciferol was evaluated to have been dissolved.

The nature of series [6]: Solubilization test of hydrocortisone: turbidity at 450 nm. It counts as physicochemical. The settings on record: for turbidity: solubilizing agent 0.050% by mass in PBS, hydrocortisone 20 mg/mL in ethanol, 125 μL/well, absorbance 450 nm minus PBS alone; for turbidity ratio to PBS: solubilizing agent 0.050% by mass, hydrocortisone, less than 10% = dissolved. The procedure:
Hydrocortisone was dissolved in ethanol at a concentration of 20 mg/mL to prepare a hydrocortisone solution.
In the same manner as above except that PBS was used instead of the solubilizing solution, “turbidity of a mixture of PBS and a hydrocortisone solution” (that is, difference between the absorbance of a mixture of PBS and a hydrocortisone solution at a wavelength of 450 nm and the absorbance of PBS alone at a wavelength of 450 nm) was measured.

Setting [7] is: solubilizing agent 0.025% by mass in PBS.
The mark [8] stands for this setting: solubilizing agent 0.025% by mass.
Where [9] appears, read: solubilizing agent 0.050% by mass in PBS.
Where [10] appears, read: solubilizing agent 0.050% by mass.

`CCCCCCCCCCCCCC(=O)O` [Myristic acid]: the “solubility in PBS” value in series [1] is on record as “insoluble”.

`CCCCCCCCSCC(C)C(=O)OCCOP(=O)([O-])OCC[N+](C)(C)C` (centres unmarked) [Synthetic Example 1, 2-[3-(octylsulfanyl)-2-methylpropionyloxy]ethyl-2-(trimethylammonio)ethyl phosphate]: the turbidity in series [2] is recorded as 0.0231; in series [3] (setting [7]), 0.0150; in series [3] (setting [9]), 0.0000; in series [4] it was 0.0000; in series [5] (setting [7]), 0.0229; in series [5] (setting [9]), 0.0132. Moreover, the “turbidity ratio to PBS” value in series [2] is on record as 5%; in series [2] (listed as Example 5-1), “less than 10%”; in series [3] (setting [8]), 9%; in series [3] (setting [10]) it was 0%; in series [4], 0%; in series [4] (listed as Example 4-1), “less than 10%”. Moreover, the “turbidity ratio to PBS” value stood at 9% in series [5] (setting [8]) and 5% in series [5] (setting [10]).

In the case of `Cc1c(C)c2c(c(C)c1O)CCC(C)(CCCC(C)CCCC(C)CCCC(C)C)O2` (racemic) [DL-α-tocopherol, reference compound], the “solubility in PBS” value in series [1] is “insoluble”.

Consider Triton X-100 [reference compound], for which the turbidity in series [2] is listed as 0.0601; in series [6] it was 0.0910; in series [3] (setting [9]), 0.2573; in series [4] it was 0.0002; in series [5] (setting [9]) it was 0.0331. In addition, the “turbidity ratio to PBS” value in series [2] is recorded as 14%; in series [6] it was 205%; in series [3] (setting [10]) it was 147%; in series [3] (solubilizing agent 0.050% by mass, listed as Comparative Example 2-2-1) it was “not less than 10%”; in series [4], 0%; in series [5] (setting [10]), 13%.

On to `CCCCCCCCCCCCCCCCSCC(C)C(=O)OCCOP(=O)([O-])OCC[N+](C)(C)C` (centres unmarked) [Synthetic Example 3, 2-[3-(hexadecylsulfanyl)-2-methylpropionyloxy]ethyl-2-(trimethylammonio)ethyl phosphate], for which the turbidity in series [6] came out at 0.0015; in series [5] (setting [7]), 0.0231; in series [5] (setting [9]), 0.0139. For the same compound, the “turbidity ratio to PBS” value is 3% in series [6], “less than 10%” in series [6] (listed as Example 3-3), 9% in series [5] (setting [8]) and 6% in series [5] (setting [10]).

For `CCCCCCCCCCCCSCC(C)C(=O)OCCOP(=O)([O-])OCC[N+](C)(C)C` (centres unmarked) [Synthetic Example 2, 2-[3-(dodecylsulfanyl)-2-methylpropionyloxy]ethyl-2-(trimethylammonio)ethyl phosphate], the turbidity in series [3] (setting [9]) is 0.0153; in series [5] (setting [7]), 0.0080; in series [5] (setting [9]) it was 0.0009. Further, the “turbidity ratio to PBS” value in series [3] (setting [10]) is 9%; in series [5] (setting [8]) it was 3%; in series [5] (setting [10]), 0%.

Take `CCCCCCCCCCCC(=O)O` [Lauric acid]: the “solubility in PBS” value in series [1] was “insoluble”.

The values above are taken from patent US12559681B2, “Solubilizing agent and solubilizing solution” (NOF CORPORATION, priority 2020, dated 2026).
